Columns and labels:
[1] = tested on: MDA-MB-231, T47D, BT474, and MIAPaCa2; test: Cell viability assay, statements across the four cell lines; format: cell-based, human; settings: three human breast and one pancreatic cancer cell line, up to 100 μM
Description: (§1) The antiproliferative activity of compound I as well as its newly synthesised analogues (5a–i) was evaluated in vitro against the three human breast cancer cell lines MDA-MB-231 (TNBC), T47D (ER^+, HER^−), and BT474 (ER^+, HER^+) as well as a human pancreatic cancer cell line MIAPaCa2. The seeding of the corresponding cell lines started one day before incubation, which lasted for 72 h with the different concentrations of the tested compounds. CellTiter Glo reagent (25 μL) was added to the cell plate. The luminescence was analysed after 10 min using a PerkinElmer Envision instrument. The test compounds were used at ten different triplicate concentrations in half log increments up to 100 μM.

MDA-MB-231 cells = test: Immunofluorescence of active FAK (FAK Y861) and vinculin; format: cell-based, human
Description: The resulting fixed cells were subsequently permeabilised with 0.2% Triton-X100 in PBS for 8 min. This was proceeded by a 40 min block in 10% normal goat serum (in 1% BSA in PBS) prior to 30 min primary antibody incubation. Both FAK^Y861 and vinculin antibodies were diluted to working concentration (1:100 and 1:200, respectively) in 1% BSA in PBS. […] Slides were viewed using a 63X oil immersion lens on a Leica DM IRE2 microscope (Leica Microsystems, Wetzlar, Germany).

hERG potassium channel = hERG potassium channel (Homo sapiens, UniProt Q12809); test: hERG channel inhibition (IonWorks automated patch clamp, CHO-hERG cells)
Description: Mammalian cells expressing the hERG potassium channel were dispensed into 384-well planar arrays and hERG tail-currents measured by whole-cell voltage-clamping. A range of concentrations of the test compound was then added to the cells and a second recording of the hERG current was made. […] IC50 is delivered, standard error (SE IC50), and n (number of data points used to calculate IC50) for the test compound. The experiments were performed on an Ion Works TM automated patch clamp instrument (Molecular Devices LLC (San Jose, California, United States)), which simultaneously performs electrophysiology measurements for 48 single cells in a specialised 384-well plate (PatchPlateTM(manufacturer, city, state if USA or Canada, country)). All cell suspensions, buffers, and test compound solutions were at room temperature during the experiment.
The cells used were Chinese hamster ovary (CHO) cells stably transfected with hERG (cell-line obtained from Cytomyx, UK). A single-cell suspension was prepared in extracellular solution (Dulbecco’s phosphate buffered saline with calcium and magnesium pH 7.2) and aliquots added automatically to each well of a Patch Plate TM. The cells were then positioned over a small hole at the bottom of each well by applying a vacuum beneath the plate to form an electrical seal. The vacuum was applied through a single compartment common to all wells which was filled with intracellular solution (buffered to pH 7.2 with HEPES). The resistance of each seal was measured via a common ground-electrode in the intracellular compartment and individual electrodes placed into each of the upper wells.
Electrical access to the cell was then achieved by circulating a perforating agent, amphotericin B, underneath the PatchPlateTM. The pre-compound hERG current was then measured. An electrode was positioned in the extracellular compartment and a holding potential of −80 mV applied for 15 s. The hERG channels were then activated by applying a depolarising step to +40 mV for 5 s and then clamped at −50 mV for 4 s to elicit the hERG tail current, before returning to −80 mV for 0.3 s.
The Ion Works TM instrument automatically adds test compound dilutions to the upper wells of the PatchPlateTM. The test compound was left in contact with the cells for 300 s before recording currents using the same voltage-step protocol as in the pre-compound scan.
Each concentration was tested in 4 replicate wells on the PatchPlateTM (maximum of 24 data points). Filters were applied to ensure only acceptable cells were used to assess hERG inhibition.
For each replicate, the hERG response was calculated using the following equation:% hERG response = [Post-compound current (nA)/Pre-compound current (nA)] × 100(5)

[2] = Microsomal metabolic stability
Description: Half-life (t1/2) values were measured at five time points.
Intrinsic clearance values (CLint) with standard error and t1⁄2 values were measured.
The final incubation volume was 50 μL. A minus cofactor control incubation was included for each compound tested where 0.1 M phosphate buffer pH 7.4 was added instead of NADPH (minus NADPH). Two control compounds were included with each species. All incubations were performed singularly for each test compound.
The reactions were stopped by transferring 20 μL of incubate to 60 μL methanol at the appropriate time points. The termination plates were centrifuged at 2500 rpm for 20 min at 4 °C to precipitate the protein.
Following protein precipitation, the sample supernatants were combined in cassettes of up to 4 compounds, the internal standard was added, and samples were analysed using Cyprotex generic LC-MS/MS conditions.
From a plot of ln peak area ratio (compound peak area/internal standard peak area) against time, the gradient of the line was determined.

T47D = test: Cell viability assay (CellTiter Glo), T47D; format: cell-based, human; settings: Homo sapiens, T47D, 72 h, 72 h incubation, mean of independent triplicate experiments, read-out: In vitro anti-proliferative activity IC50, T47D ER+ PR+/- HER-
Description: as §1

[3] = Turbidimetric aqueous solubility; format: physicochemical; settings: 37 °C, 2 h
Description: Both the estimated precipitation range (lower and upper bound) and a mid-range value were measured. Nicardipine and pyrene were used as control compounds.
The test compound was diluted in buffer to give a range of concentrations (1, 3, 10, 30, and 100 μM; final DMSO concentration 1%) and incubated at 37 °C for 2 hr.
The test compound (10 mM in DMSO) was serially diluted to give solutions of 0.1, 0.3, 1, and 3 mM in DMSO. Each test compound concentration was then further diluted 1 to 100 in buffer (typically 0.01 M phosphate buffered saline pH 7.4) so that the final DMSO concentration was 1%, and the final test compound concentrations were 1, 3, 10, 30, and 100 μM. The experiment was performed at 37 °C and each concentration was incubated in 7 replicate wells. The plates were incubated for 2 h at 37 °C before the absorbance was measured at 620 nm. Nicardipine and pyrene were included as control compounds. The solubility of nicardipine is pH dependent whereas the solubility of pyrene is pH independent.
An estimated precipitation range (lower and upper bound) and a calculated mid-range value were returned, along with any relevant comments, in the form of an Excel spreadsheet.

MIAPaCa2 = test: Cell viability assay (CellTiter Glo), MIAPaCa2; format: cell-based; settings: Homo sapiens, MIA PaCa-2, 72 h incubation, mean of independent triplicate experiments, read-out: In vitro anti-proliferative activity IC50, MIAPaCa2
Description: as §1

MDA-MB-231 [4] = test: Preliminary in vitro profiling of virtual hits; format: cell-based, human
From the text: Approximately 210,000 small molecules from the SPECS virtual library of compounds were imported, rendered, and minimised using a MMFF94x force field and run in a virtual screening simulations programme using Glide SP within Maestro software (Glide, version 9.5, Schrödinger; http://www.schrodinger.com). These compounds underwent four stages of filtration including prefiltration of the non-drug-like compounds in accordance with Lipinski’s rules and excluding chemically unstable and potentially toxic groups. This was followed by high throughput virtual screening (HTVS), standard precision virtual screening (SPVS) and extra precision virtual screening (XPVS). Each compound was positioned in the chosen pocket, which was made up of the area surrounding the three amino acids Asp 1036, Ser 910, and Lys 1032 within a 12 A° radius and scored for electrostatic and van der Waals interactions as implemented in the Schrodinger virtual screening package (version 9.5). […] These 25 hits underwent preliminary in vitro profiling in the metastatic triple negative breast cancer (TNBC) cell line (MDA-MB-231) for antiproliferative and antimigratory properties.

BT474 = test: Cell viability assay (CellTiter Glo), BT474; format: cell-based, human; settings: Homo sapiens, BT-474, 72 h, 72 h incubation, mean of independent triplicate experiments, read-out: In vitro anti-proliferative activity IC50, BT474 ER+ PR+/- HER+
Description: as §1

FAK = molecular target: T1, FAK (Homo sapiens, UniProt Q05397); test: Western blotting of FAK activity; format: cell-based; settings: MDA-MB-231, Western blot
T1 construct: in an in vitro model of TNBC, MDA-MB-231; endogenous in cells; host or cells: MDA-MB-231 (human triple negative breast cancer cells)
From the text: This was expected, given that this compound limits protein–protein scaffolding interaction rather than kinase activity and subsequent phosphorylation of key FAK residues.

MDA-MB-231 [5] = test: Cell viability assay (CellTiter Glo), MDA-MB-231; format: cell-based; settings: Homo sapiens, 72 h incubation, mean of independent triplicate experiments, read-out: In vitro anti-proliferative activity IC50, MDA-MB-231 ER- PR- HER-
Description: as §1

[6] = MDA-MB-231, 1 h serum stimulated
[7] = human, pooled liver microsomes, pH 7.4
[8] = buffered aqueous solution (PBS pH 7.4, 1% DMSO)

T1 sequence (Q05397 whole entry): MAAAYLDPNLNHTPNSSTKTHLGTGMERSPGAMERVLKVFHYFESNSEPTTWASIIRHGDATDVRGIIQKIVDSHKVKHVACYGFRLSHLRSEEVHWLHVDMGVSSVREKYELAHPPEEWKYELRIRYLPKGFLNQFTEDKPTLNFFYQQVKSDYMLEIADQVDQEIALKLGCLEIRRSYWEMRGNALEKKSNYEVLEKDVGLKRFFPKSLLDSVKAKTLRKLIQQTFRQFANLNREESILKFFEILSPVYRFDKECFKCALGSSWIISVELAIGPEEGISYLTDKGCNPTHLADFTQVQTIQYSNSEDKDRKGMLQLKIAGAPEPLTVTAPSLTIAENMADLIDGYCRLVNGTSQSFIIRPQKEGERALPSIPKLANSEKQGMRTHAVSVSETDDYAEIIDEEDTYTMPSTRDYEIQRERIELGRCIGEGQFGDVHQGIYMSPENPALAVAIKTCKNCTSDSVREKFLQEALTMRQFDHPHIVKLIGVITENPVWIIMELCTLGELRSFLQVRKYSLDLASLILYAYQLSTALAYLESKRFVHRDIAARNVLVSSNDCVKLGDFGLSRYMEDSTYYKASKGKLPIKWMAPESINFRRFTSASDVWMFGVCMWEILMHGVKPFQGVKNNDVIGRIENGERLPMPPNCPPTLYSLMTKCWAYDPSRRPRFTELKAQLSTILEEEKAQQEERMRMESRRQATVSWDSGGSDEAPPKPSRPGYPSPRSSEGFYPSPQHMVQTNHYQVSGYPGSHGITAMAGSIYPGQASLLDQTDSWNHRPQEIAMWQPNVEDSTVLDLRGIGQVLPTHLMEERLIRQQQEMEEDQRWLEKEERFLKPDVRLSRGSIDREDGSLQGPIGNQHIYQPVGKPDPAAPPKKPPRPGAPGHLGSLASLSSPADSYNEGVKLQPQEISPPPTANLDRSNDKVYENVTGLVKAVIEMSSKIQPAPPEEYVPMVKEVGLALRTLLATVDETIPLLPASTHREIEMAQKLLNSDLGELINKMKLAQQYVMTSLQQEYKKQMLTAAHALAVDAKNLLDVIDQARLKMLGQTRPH
Chain of hERG potassium channel (Q12809 whole entry): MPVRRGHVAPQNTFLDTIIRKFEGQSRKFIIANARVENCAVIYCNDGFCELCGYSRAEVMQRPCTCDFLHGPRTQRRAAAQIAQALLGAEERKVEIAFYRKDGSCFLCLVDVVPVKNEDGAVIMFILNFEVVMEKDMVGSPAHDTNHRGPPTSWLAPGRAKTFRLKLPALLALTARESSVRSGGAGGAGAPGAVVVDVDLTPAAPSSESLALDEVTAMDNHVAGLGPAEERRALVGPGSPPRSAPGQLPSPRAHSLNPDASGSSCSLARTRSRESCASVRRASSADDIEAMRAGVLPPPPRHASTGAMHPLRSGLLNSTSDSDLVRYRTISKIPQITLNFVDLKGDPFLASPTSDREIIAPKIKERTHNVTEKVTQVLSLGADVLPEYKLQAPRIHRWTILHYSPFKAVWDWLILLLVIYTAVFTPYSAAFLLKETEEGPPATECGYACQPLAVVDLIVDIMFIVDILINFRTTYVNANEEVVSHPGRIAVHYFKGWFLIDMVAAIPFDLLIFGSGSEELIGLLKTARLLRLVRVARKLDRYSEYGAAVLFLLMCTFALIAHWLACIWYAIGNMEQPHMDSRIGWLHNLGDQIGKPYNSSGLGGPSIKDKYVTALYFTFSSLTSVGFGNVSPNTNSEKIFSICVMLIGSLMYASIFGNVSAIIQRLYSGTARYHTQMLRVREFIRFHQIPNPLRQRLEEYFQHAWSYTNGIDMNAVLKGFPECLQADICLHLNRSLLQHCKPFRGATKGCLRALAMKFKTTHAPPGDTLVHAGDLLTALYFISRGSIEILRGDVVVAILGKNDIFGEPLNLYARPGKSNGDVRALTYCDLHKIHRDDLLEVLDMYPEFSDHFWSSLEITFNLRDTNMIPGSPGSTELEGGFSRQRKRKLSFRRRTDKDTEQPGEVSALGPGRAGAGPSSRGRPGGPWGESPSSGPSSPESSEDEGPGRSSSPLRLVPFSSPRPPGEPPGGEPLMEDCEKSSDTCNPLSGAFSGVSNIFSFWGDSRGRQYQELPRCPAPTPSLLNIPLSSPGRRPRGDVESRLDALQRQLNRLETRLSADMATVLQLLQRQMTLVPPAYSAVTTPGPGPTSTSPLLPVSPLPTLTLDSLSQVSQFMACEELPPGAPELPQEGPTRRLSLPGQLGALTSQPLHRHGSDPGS

With `CC(C)(C)c1ccc(C(CN)c2ccc(Cl)cc2)cc1` (stereo not shown) [Compound I] the “Anti-proliferative activity (in words) across the four cell lines” value [1] was “low micromolar antiproliferative activity”, the “Number of focal adhesions/cell” value (MDA-MB-231 cells; [6]) was “significant increase in focal adhesions” and the “Size of focal adhesions” value (MDA-MB-231 cells; [6]) was “no effect on the size of focal adhesions”. The “Localisation of FAK to the cell periphery” value (MDA-MB-231 cells; MDA-MB-231, 1 h serum stimulated, vs vehicle-only controls) was “increased localisation of FAK to the cell periphery”, the “Active FAK throughout the cytoplasm” value (MDA-MB-231 cells; MDA-MB-231, versus PF271 treated cells) was “significantly more active FAK displayed throughout the cytoplasm” and the IC50 (hERG potassium channel) was 5.47 µM. The “Compound Remaining (% of 0 min), 0 min” value ([2]; human liver microsomes, 0 min) was 100 % of 0 min, the “Compound Remaining (% of 0 min), 5 min” value ([2]; human liver microsomes, 5 min) was 89.4 % of 0 min and the “Compound Remaining (% of 0 min), 15 min” value ([2]; human liver microsomes, 15 min) was 92.3 % of 0 min. The “Compound Remaining (% of 0 min), 30 min” value ([2]; human liver microsomes, 30 min) was 77.9 % of 0 min, the “Compound Remaining (% of 0 min), 45 min” value ([2]; human liver microsomes, 45 min) was 81.3 % of 0 min and the “Compound Remaining (% of 0 min), Control” value ([2]; human liver microsomes, minus NADPH control, 45 min) was 95.7 % of 0 min. The half-life at 3 μM [2, 7] was 2.53 h, the microsomal CLint at 3 μM [2, 7] was 9.1 µL/min/mg and the IC50 (T47D) was 6.71 µM. The “Estimated Precipitation Range, Calculated Mid-Range” value [3, 8] was >100 µM, the “Estimated Precipitation Range, Lower Bound” value [3, 8] was 100 µM and the “Estimated Precipitation Range, Upper Bound” value [3, 8] was >100 µM. For the same molecule, the “Aqueous solubility (in words)” value ([3]; turbidimetric) was “high aqueous solubility”, the IC50 (MIAPaCa2) was 5.66 µM and the “Antiproliferative and antimigratory properties (preliminary profiling)” value (MDA-MB-231 [4]) was “low micromolar antiproliferative and antimigratory properties exceeding those of chloropyramine (C4)”. The IC50 (BT474) was 2.67 µM, the “Activity of FAK Y397 / FAK Y925 (phosphorylation)” value (FAK) was “no significant changes” and the “Stability of total FAK protein” value (FAK) was “no changes in the stability of total FAK protein”. For the same molecule, the IC50 (MDA-MB-231 [5]) was 6.37 µM.
